Assay results from patent US20220154153A1, “NEW INHIBITORS OF LRRK2/PP1 INTERACTION” (Université de Paris, priority 2019, published 2022).
“Also recorded” adds a separate entry of the source.

Assays:
PBMC from CLL patients = assay: Internalization of FITC-labelled peptides in PBMC from chronic lymphocytic leukemia (CLL) patients (FACS); assay type: cell-based, human; settings: 4 h, 37° C.; for FITC labelled cells detected (FACS): PBMC of CLL, 50 μM FITC labelled peptide
Method: (§1) Isolation and Culture of Primary Cells
(§2) Fresh blood from healthy donors (HD) was obtained from Etablissement Francais du Sang. Chronic lymphocytic leukemia (CLL) patient samples were obtained from the Department of Hematology. Peripheral blood mononuclear cells (PBMC) from HD and CLL patients were prepared by Ficoll gradient centrifugation. Cells were maintained in RPMI 1640 supplemented with 10% of FCS, 1% non-essential amino acids, 1% Hepes, 1% sodium pyruvate and 1% glutamine. All the experimental protocols as well as the human blood samples isolation were approved by the Ethical Committee of the Hospital in accordance with the National Guide of the Ministry of Health.
(§3) In addition to cell lines, the internalization of the new peptides according to the invention was further tested in peripheral blood mononuclear cells (PBMC) from healthy donors and chronic lymphocytic leukemia (CLL) patients. PBMC from both were incubated with 50 μM of both peptides for 4 h at 37° C.

MDA-MB231 cells [1] = assay: Internalization of FITC-labelled peptides in MDA-MB231 cell line (FACS); assay type: cell-based, human; settings: different concentrations, 4 h, compared to peptide 13
Method: Quantification of Cellular Internalization
Human cell line MDA-MB231 was seeded in 24 well plate (1×10^5 cells/well) and treated with different concentrations of FITC-labelled peptides for different periods of time. After treatment, cells were harvested and washed twice with PBS to remove the extracellular unbound peptide and resuspended in 200 μl of PBS. FITC fluorescence intensity of internalized peptides was measured by flow cytometry. Untreated cells were used as control.

PBMC from healthy donors = assay: Internalization of FITC-labelled peptides in PBMC from healthy donors (FACS); assay type: cell-based, human; settings: 4 h, 37° C.; for FITC labelled cells detected (FACS): PBMC of healthy human, 50 μM FITC labelled peptide
Method: as §1, §2, §3

LRRK2/PP1 interaction = assay: In vitro competition assay of LRRK2/PP1 interaction (LRRK2 immunoprecipitates from MDA-MB231 lysates, anti-PP1 Western blot); assay type: binding, human; settings: 1 mM peptide, 30 min, room temperature; compared with non-competed immunoprecipitates
Method: In Vitro Protein/Protein Interaction Competition
The PP1/LRRK2 interaction was competed using the peptides of the invention. Lysates from MDA-MB231 cells were immunoprecipitated with anti-LRRK2 antibody (overnight, 4° C.) and protein A/G Sepharose was added for 1 h at 4° C. The PP1/LRRK2 interaction was competed with 1 mM of the peptide for 30 min at room temperature. After several washing steps, immunoprecipitates were transferred to nitrocellulose and blotted with anti PP1 antibody (Santa Cruz Biotechnology). As internal control, the blot was also blotted with anti-LRRK2 antibody (Invitrogene).
Immunoprecipitation and Western Blotting
Cells (5×10^6) were lysed for 20 min at 4° C. in lysis buffer (50 mM Tris pH8, 1% NP40, 137 mM NaCl, 1 mM MgCl2, 1 mM CaCl2), 10% glycerol and protease inhibitor mixture). Lysates (500 μg) were immunoprecipitated with the appropriated antibody overnight at 4° C. and protein A/G sepharose was added for 1 h at 4° C. After washing with 1×TBST (20 mM Tris HCl pH7.5, 150 mM NaCl, 0.05% Tween 20) immunoprecipitates were separated by SDS-PAGE, transferred to nitrocellulose, blocked (5% non-fat dry milk in TBST) and incubated with the primary antibody (Santa Cruz Biotehnology). The membrane was washed and incubated with PO-conjugates secondary antibody (Dako). Protein detection was performed using the ECL system.

MDA-MB231 cells [2] = assay: Detection of apoptosis by Annexin-V-FITC staining in cancer cells; assay type: cell-based, human; settings: 25 μM peptide, 24 h of treatment
Method: Detection of Apoptosis by Annexin-V-FITC Staining
Apoptosis was determined using Annexin-V FITC (eBiosciences) as described by the manufacturer. Briefly, cells were washed in 1× binding buffer, centrifuged and resuspended in 100 μl of 1× binding buffer containing Annexin-V FITC and propidium iodide. After incubation for 15 min, cells were analyzed by flow cytometry. Data acquired by FACS Canto were analyzed with Diva 60 software. Each condition was analyzed in triplicate. The effect of peptide treatment was compared to untreated control cells.

Row | Sequence | Fluorescence intensity of internalization compared with peptide 13 (PBMC from CLL patients; CLL patients PBMC, 50 μM) | FITC labelled cells detected (FACS) (PBMC from CLL patients) | Fluorescence intensity of internalization (FACS) (MDA-MB231 cells [1]) | FITC labelled cells detected (FACS) (PBMC from healthy donors) | Fluorescence intensity of internalization compared with peptide 13 (PBMC from healthy donors; healthy donors PBMC, 50 μM) | PP1 detected in LRRK2 immunoprecipitates after competition with peptide (Western blot) (LRRK2/PP1 interaction) | Apoptosis induction (Annexin-V) (MDA-MB231 cells [2])
1 | VKKKKIKAEIKIGFWSRLINRLLEI (Synthetic construct Seq_29 fused to seq_8) [peptide 14] | slightly higher fluorescence intensity | majority of FITC labelled cells is detected | higher | majority of FITC labelled cells is detected | slightly higher fluorescence intensity | important decrease in PP1 detected | strong level of apoptosis
2 | VKKKKIKAEIKIPMGFWSRLINRLLEISPY (Synthetic construct Seq_29 fused to seq_7) [peptide 13] | – | majority of FITC labelled cells is detected | – | majority of FITC labelled cells is detected | – | low detected; also recorded: important decrease in PP1 detected | strong level of apoptosis
3 | VKKKKIKAEIKI (Synthetic construct vectorization (or carrier) peptide disclosed in WO/2016/156536) [shuttle, optimized cell penetrating peptide used alone as control, reference compound] | – | – | – | – | – | PP1 is detected; also recorded: no difference | do not show apoptosis
